# Reference: patent EP1760056A1, “A convenient method for the preparation of no-carrier-added O-(2-[18F]fluoroethyl)-L-Tyrosine)” (Institute of Nuclear Energy Research, priority 2005, dated 2007)
# Read-outs that look alike come from different tables or passages of the source.
# What was measured:
# [1] = tested on: F98 glioma cells; experiment: L-[18F]FET uptake by F98 glioma tumor cells; assay type: cell-based, rat; conditions: 10 µCi/well
# Method: • (1) In five six-well plates, put 1×10^6 F98 glioma cells and 2 ml DMEM (1g glucose/1) into three wells. • (2) Total of five time points (2, 5, 10, 30 minute and 1hour) in this experiment and each time point use one six-well plate. • (3) Predetermined activity of L-[^18F]FET or [^18F]FDG (10 µCi/well) is added into each well during the experiment. […] F98 glioma cells intake L-[^18F]FET rapidly and maximal accumulation will reach after 10 minutes (uptake ratio 0.47%). As cell cannot metabolize L-[^18F]FET, therefore, the rate of L-[^18F]FET transportation by the cells become balance after ten minutes when add L-[^18F]FET; the accumulation of L-[^18F]FET in glioma cells only slightly decrease after 1 hour (uptake ratio 0.41%).
# [2] = tested on: brain tumor (F98 glioma); experiment: PET and microPET imaging of tumor-bearing rat with L-[18F]FET; assay type: in vivo, rat (Fischer 344); conditions: 400 µCi into tail vein
# Method: • (1) Positron emission tomography (PET) studies of tumor-bearing rat (Fischer 344) with L-[^18F]FET will be carry out after 11~12 days of brain tumor (F98 glioma) implantation. • (2) Producing processes of L-[^18F]FET as described above, and estimates its administrating amount of agent according to the level of radioactivity. • (3) At the very beginning, inject 400 µCi of L-[^18F]FET into tail vein. Temporarily anesthetize rats with ether at time of 0.5, 1, 1.5 and 2 hours. Fix rat on transparent acrylic board and place on PET table after securing stretched limbs on the board. Continuously anesthetize rats with isoflurane gas. Align implant portion of head with PET machine as to assure the fixation of original imaging position. • (4) Adjust background value by blank scan before PET imaging. • (5) Use Ga-68 radioactive source proceed transmission scan for adjust tissue attenuation. • (6) Commence PET and microPET imaging. Perform image processing after reconstruction of acquired image data; the coronal and cross section scans show in Figure 3 and 9. […] In contrast to tumor site, normal tissue have lower radioactivity accumulation of L-[^18F]FET because of lower amino acid requirement.
# [3] = Biological distribution of L-[18F]FET in F98 glioma-bearing Fischer 344 rat; conditions: in vivo, iv; for tissue uptake at 0.25 h: 15 min after injection via tail vein; for tissue uptake at 0.5 h: 30 min after injection via tail vein; for tissue uptake at 1 h: 60 min after injection via tail vein; for tissue uptake at 2 h: 120 min after injection via tail vein
# Method: (§1) • (1) Total of twenty Fischer 344 male rats will be assessed in vivo for L-[^18F]FET biological distribution. Use the intersection of bregma and sagittal midlines as original point; so as to implant F98 glioma cells (1 × 10^5cells /10 µl) at the place of 3mm left 5mm upward and 5mm depth. Biological distribution test will be carry out after 11~12 days of brain tumor implantation. • (2) Different volume of radioactive level is injected, injected volume of L-[^18F]FET for each Fischer 344 rat is 200~300µl, that is approximately 200~250 µCi of activity. • (3) Inject L-[^18F]FET via tail vein, and rats are sacrificed at 15, 30, 60, 90 and 120 minutes. • (4) Dissection of rat organ is right after sacrifice. Scissors off chest and abdomen fur alone the line from genital pore upward to jowl. Next, scissors off chest above xiphisternal transversely. Open ribs aside, take blood sample from venous sinus with 0.5 ml syringe. Withdraw the needle after depletion of blood and collect the extracted heart. Collect the lung lobes with forcep. • (5) Scissors off abdominal muscle from genital pore upward to the position below xiphisternal longitudinally. Then, scissors off the opening of upper and lower edges transversely, everts muscle layers to both sides and expose celiac organs. Search for bladder in lower abdomen and sequentially removes stomach, liver, spleen, small intestine, large intestine, kidney, and muscle. • (6) After turn over the rat, scissors off fur of shoulder and removes exposed subcutaneous tumor. Cut scalp upward at lower margin of cranium above foramen magnum and expose cranial bone. Then, cut cervical portion transversely at foramen magnum and expose spinal cord. Inserts foramen magnum with scissors' tip while attach the inner surface of cranium; such that scissors' tip can reach the frontal edge of cranial cavity in order to scissor off the center of cranium. Use scissors to open cranium aside and expose brain tissue. Alone skull base insert scissors deeply to the front edge of cranial cavity in order to remove left-brain, right-brain and brain tumor. • (7) Weight all organ samples; measure radioactivity with γ-counter and convert to %ID/g (% injection dose/g organ) of each organ for estimate the biological distribution of L-[^18F]FET. […] According to reports, L-[^18F]FET can pass through blood brain barrier (BBB) and enter brain by way of L amino acid transporter system. […] Tumor-to-normal brain ratio of L-[^18F]FET at 15, 30, 60, 90 and 120 minutes are 1.54, 1.74, 3.16, 3.14 and 2.34 respectively. Besides brain tumor, rat pancreas also accumulate large amount of L-[^18F]FET (0.98, 1.76, 2.55, 2.28 and 2.24 %ID/g respectively at 15, 30, 60, 90 and 120 minutes); the increasing radioactivity of L-[^18F]FET in pancreas is because of pancreas require large amount of amino acid for synthesis various enzymes and hormones. Some papers reported that patient with tumor observes no significant accumulation of radioactivity in pancreas when use positron emission tomography (PET), the discrepant results were assumed that human and rat have different metabolic pathway. Furthermore, biological distribution study of L-[^18F]FET indicated radioactivity accumulation in tumor cells (expressed by %ID/g) are much higher than other normal organs (left-brain, small intestine, kidney, liver, blood and muscle) except pancreas, this means L-[^18F]FET can be a potential PET agent for substantially different site of tumor. […] Table 1: Determination of accumulated radioactivity (%ID/g) in organs at different time points after injected L-[18F]FET into tumor-bearing rat
# [4] = tested on: F98 glioma cells; experiment: as above; conditions: in vivo
# Method: as §1
# [5] = Liver, read-out: accumulated radioactivity
# [6] = Lung, read-out: accumulated radioactivity
# [7] = Muscle, read-out: accumulated radioactivity
# [8] = Pancreas, read-out: accumulated radioactivity
# [9] = Right brain, read-out: accumulated radioactivity
structure (smiles),measurement,setting,value
"N[C@@H](Cc1ccc(OCC[18F])cc1)C(=O)O [L-[^18F]FET, O-(2-[^18F]fluoroethyl)-L-Tyrosine]",uptake ratio,[1]; after 10 minutes (maximal accumulation),0.47%
same,uptake ratio,[1]; after 1 hour,0.41%
same,radioactivity accumulation in brain tumor,[2],significant radioactivity accumulation in brain tumor
same,time of maximum uptake in brain tumor,[2]; time after injection,90 min
same,tissue uptake at 0.25 h,[3]; [5],0.27 ± 0.06 %ID/g
same,tissue uptake at 0.5 h,[3]; [5],0.37 ± 0.07 %ID/g
same,tissue uptake at 1 h,[3]; [5],0.41 ± 0.06 %ID/g
same,tissue uptake at 1.5 h,"[3]; Liver, 90 min after injection via tail vein, read-out: accumulated radioactivity",0.49 ± 0.01 %ID/g
same,tissue uptake at 2 h,[3]; [5],0.41 ± 0.09 %ID/g
same,tissue uptake at 0.25 h,[3]; [6],0.32 ± 0.05 %ID/g
same,tissue uptake at 0.5 h,[3]; [6],0.43 ± 0.09 %ID/g
same,tissue uptake at 1 h,[3]; [6],0.43 ± 0.07 %ID/g
same,tissue uptake at 1.5 h,"[3]; Lung, 90 min after injection via tail vein, read-out: accumulated radioactivity",0.45 ± 0.02 %ID/g
same,tissue uptake at 2 h,[3]; [6],0.4 ± 0.06 %ID/g
same,tissue uptake at 0.25 h,[3]; [7],0.19 ± 0.03 %ID/g
same,tissue uptake at 0.5 h,[3]; [7],0.28 ± 0.01 %ID/g
same,tissue uptake at 1 h,[3]; [7],0.36 ± 0.04 %ID/g
same,tissue uptake at 1.5 h,"[3]; Muscle, 90 min after injection via tail vein, read-out: accumulated radioactivity",0.44 ± 0.1 %ID/g
same,tissue uptake at 2 h,[3]; [7],0.37 ± 0.1 %ID/g
same,tissue uptake at 0.25 h,[3]; [8],0.98 %ID/g
same,tissue uptake at 0.5 h,[3]; [8],1.76 %ID/g
same,tissue uptake at 1 h,[3]; [8],2.55 %ID/g
same,tissue uptake at 1.5 h,"[3]; Pancreas, 90 min after injection via tail vein, read-out: accumulated radioactivity",2.28 %ID/g
same,tissue uptake at 2 h,[3]; [8],2.24 %ID/g
same,tissue uptake at 0.25 h,[3]; [9],0.07 ± 0.02 %ID/g
same,tissue uptake at 0.5 h,[3]; [9],0.21 ± 0.03 %ID/g
same,tissue uptake at 1 h,[3]; [9],0.34 ± 0.03 %ID/g
same,tissue uptake at 1.5 h,"[3]; Right brain, 90 min after injection via tail vein, read-out: accumulated radioactivity",0.48 ± 0.08 %ID/g
same,tissue uptake at 2 h,[3]; [9],0.34 ± 0.04 %ID/g
same,tissue uptake at 1.5 h,[3]; maximum accumulation in normal brain tissue,0.48 %ID/g
same,Tumor-to-normal brain ratio,[4]; 15 min,1.54
same,Tumor-to-normal brain ratio,[4]; 30 min,1.74
same,Tumor-to-normal brain ratio,[4]; 60 min,3.16
same,Tumor-to-normal brain ratio,[4]; 90 min,3.14
same,Tumor-to-normal brain ratio,[4]; 120 min,2.34
